# Experimental data: paper PMC12203862, “BroadAMP-GPT: AI-Driven generation of broad-spectrum antimicrobial peptides for combating multidrug-resistant ESKAPE pathogens” (Gut Microbes, 2025)
# Where two headings read alike, the source gives them in different places.
# Assays:
# E. faecalis ES01 = experiment: microbe, parasite or virus in culture; type: cell-based; details: Enterococcus faecalis
# Protocol: (§1) Bacterial strains and growth conditions: All Gram-negative and Gram-positive bacterial strains (Supplementary Table S8) were cultured in Luria-Bertani (LB) or trypticase soy broth (TSB) agar plates, respectively, and incubated overnight at 37 °C unless specifically indicated. A single colony of the tested bacterial strains was inoculated into medium broth with shaking at 220 rpm for further experiments.
# (§2) Minimal inhibitory concentrations: Antimicrobial susceptibility testing was performed by broth microdilution method for AMPs against Gram-positive and Gram-negative pathogens above mentioned, following the methods of document CLSI M100-ED34.[43] The MICs were defined as the lowest concentrations that inhibit visible growth of the tested bacteria. E. coli ATCC 25,922 and S. aureus ATCC 29,213 were served as quality controls.
# E. faecalis J2 = experiment: microbe, parasite or virus in culture; type: cell-based; details: Enterococcus faecalis
# Protocol: as §1, §2
# E. faecalis JH2-2 = experiment: microbe, parasite or virus in culture; type: cell-based; details: Enterococcus faecalis, JH22
# Protocol: as §1, §2
# E. faecalis SF23-1 = experiment: microbe, parasite or virus in culture; type: cell-based; details: Enterococcus faecalis, SF231
# Protocol: as §1, §2
# E. faecium HFY01 = experiment: microbe, parasite or virus in culture; type: cell-based; details: Enterococcus faecium
# Protocol: as §1, §2
# E. faecium MC38 = experiment: microbe, parasite or virus in culture; type: cell-based; details: Enterococcus faecium
# Protocol: as §1, §2
# E. faecium QF31 = experiment: microbe, parasite or virus in culture; type: cell-based; details: Enterococcus faecium
# Protocol: as §1, §2
# S. agalactiae DL03 = experiment: microbe, parasite or virus in culture; type: cell-based; details: Streptococcus agalactiae
# Protocol: as §1, §2
# S. aureus M147-2 = experiment: microbe, parasite or virus in culture; type: cell-based; details: Staphylococcus aureus, M1472
# Protocol: as §1, §2
# S. aureus M92-1 = experiment: microbe, parasite or virus in culture; type: cell-based; details: Staphylococcus aureus, M921
# Protocol: as §1, §2
# S. aureus YZSA-15 = experiment: microbe, parasite or virus in culture; type: cell-based; details: Staphylococcus aureus, YZSA15
# Protocol: as §1, §2
# S. aureus YZSA-21 = experiment: microbe, parasite or virus in culture; type: cell-based; details: Staphylococcus aureus, YZSA21
# Protocol: as §1, §2
# S. aureus YZSA-24 = experiment: microbe, parasite or virus in culture; type: cell-based; details: Staphylococcus aureus, YZSA24
# Protocol: as §1, §2
# S. pyogenes DL02 = experiment: microbe, parasite or virus in culture; type: cell-based; details: Streptococcus pyogenes
# Protocol: as §1, §2
# S. suis SH0918 = experiment: microbe, parasite or virus in culture; type: cell-based; details: Streptococcus suis
# Protocol: as §1, §2
# A. baumannii 7979 = experiment: microbe, parasite or virus in culture; type: cell-based; details: Table 1, A. baumannii 7979, broth microdilution
# Protocol: as §1, §2
# A. baumannii AB11 = experiment: microbe, parasite or virus in culture; type: cell-based; details: Table 1, A. baumannii AB11, broth microdilution
# Protocol: as §1, §2
# E. coli ATCC 25922 = experiment: microbe, parasite or virus in culture; type: cell-based; details: Table 1, E. coli ATCC 25922, broth microdilution
# Protocol: as §1, §2
# K. pneumoniae 9-1 = experiment: microbe, parasite or virus in culture; type: cell-based; details: Table 1, K. pneumoniae 9-1, broth microdilution
# Protocol: as §1, §2
# P. aeruginosa PA14 = experiment: microbe, parasite or virus in culture; type: cell-based; details: Table 1, P. aeruginosa PA14, broth microdilution
# Protocol: as §1, §2
# P. aeruginosa PAO1 = experiment: microbe, parasite or virus in culture; type: cell-based; details: Table 1, P. aeruginosa PAO1, broth microdilution
# Protocol: as §1, §2
# S. enteritis S1 = experiment: organism not typed; type: cell-based; details: Table 1, S. enteritis S1, broth microdilution
# Protocol: as §1, §2
# S. aureus ATCC 29213 = experiment: microbe, parasite or virus in culture; type: cell-based; details: Staphylococcus aureus, ATCC29213
# S. suis P1/7 = experiment: microbe, parasite or virus in culture; details: Streptococcus suis, P1/7
# Protocol: as §1
# as §2, with “bacteria.” for “bacteria. E. coli ATCC 25,922 and S. aureus ATCC 29,213 were served as quality controls.”
# [1] = Table 1, E. faecalis ES01, ermB, vanB, broth microdilution, read-out: MIC
# [2] = Table 1, E. faecalis J2, ermB, optrA, broth microdilution, read-out: MIC
# [3] = Table 1, E. faecalis JH2-2, broth microdilution, read-out: MIC
# [4] = Table 1, E. faecalis SF23-1, ermB, tetL, cfr, broth microdilution, read-out: MIC
# [5] = Table 1, E. faecium HFY01, broth microdilution, read-out: MIC
# [6] = Table 1, E. faecium MC38, ermB, optrA, broth microdilution, read-out: MIC
# [7] = Table 1, E. faecium QF31, ermB, cfr, broth microdilution, read-out: MIC
# [8] = Table 1, S. agalactiae DL03, ermB, broth microdilution, read-out: MIC
# [9] = Table 1, S. aureus M147-2, ermB, tetL, cfr, broth microdilution, read-out: MIC
# [10] = Table 1, S. aureus M92-1, ermB, tetL, optrA, broth microdilution, read-out: MIC
# [11] = Table 1, S. aureus YZSA-15, ermC, vanB, broth microdilution, read-out: MIC
# [12] = Table 1, S. aureus YZSA-21, ermC, broth microdilution, read-out: MIC
# [13] = Table 1, S. aureus YZSA-24, ermC, mecA, broth microdilution, read-out: MIC
# [14] = Table 1, S. pyogenes DL02, ermB, broth microdilution, read-out: MIC
# [15] = Table 1, S. suis SH0918, ermB, tetO, optrA, broth microdilution, read-out: MIC
# [16] = Acinetobacter baumannii, read-out: MIC
# [17] = Escherichia coli, ATCC25922, read-out: MIC
# [18] = Klebsiella pneumoniae, 91, read-out: MIC
# [19] = Pseudomonas aeruginosa, read-out: MIC
Molecule,MIC (E. faecalis ES01; [1]) [µg/mL],MIC (E. faecalis J2; [2]) [µg/mL],MIC (E. faecalis JH2-2; [3]) [µg/mL],MIC (E. faecalis SF23-1; [4]) [µg/mL],MIC (E. faecium HFY01; [5]) [µg/mL],MIC (E. faecium MC38; [6]) [µg/mL],MIC (E. faecium QF31; [7]) [µg/mL],MIC (S. agalactiae DL03; [8]) [µg/mL],MIC (S. aureus M147-2; [9]) [µg/mL],MIC (S. aureus M92-1; [10]) [µg/mL],MIC (S. aureus YZSA-15; [11]) [µg/mL],MIC (S. aureus YZSA-21; [12]) [µg/mL],MIC (S. aureus YZSA-24; [13]) [µg/mL],MIC (S. pyogenes DL02; [14]) [µg/mL],MIC (S. suis SH0918; [15]) [µg/mL],MIC (A. baumannii 7979; [16]) [µg/mL],MIC (A. baumannii AB11; [16]) [µg/mL],MIC (E. coli ATCC 25922; [17]) [µg/mL],MIC (K. pneumoniae 9-1; [18]) [µg/mL],MIC (P. aeruginosa PA14; [19]) [µg/mL],other results
"O=C(O)c1cn(C2CC2)c2cc(N3CCNCC3)c(F)cc2c1=O [CIP, ciprofloxacin]",2,8,0.5,16,1,8,2,16,32,16,0.25,0.5,4,1,16,–,–,–,–,–,–
colistin [CST],–,–,–,–,–,–,–,–,–,–,–,–,–,–,–,–,–,–,–,–,MIC (A. baumannii 7979): <0.06 µg/mL; MIC (A. baumannii AB11): 8 µg/mL; MIC (E. coli ATCC 25922): 1 µg/mL; MIC (K. pneumoniae 9-1): 1 µg/mL; MIC (P. aeruginosa PA14): <0.06 µg/mL; MIC (P. aeruginosa PAO1): 0.125 µg/mL; MIC (S. enteritis S1): 0.5 µg/mL
"C[C@H]1c2cccc(O)c2C(=O)C2=C(O)[C@]3(O)C(=O)C(C(N)=O)=C(O)[C@@H](N(C)C)[C@@H]3[C@@H](O)[C@@H]21 [DOX, doxycycline]",0.5,16,4,16,< 0.06,16,16,< 0.06,16,16,0.25,0.25,0.5,2,16,> 64,< 0.06,1,> 64,16,"MIC (S. aureus ATCC 29213; Table 1, S. aureus ATCC 29213, broth microdilution, CLSI M100-ED34, read-out: MIC): 0.25 µg/mL; MIC (P. aeruginosa PAO1; [19]): 8 µg/mL; MIC (S. suis P1/7): 0.125 µg/mL; MIC (S. enteritis S1; read-out: MIC): > 64 µg/mL"
"C[C@H]1[C@H](NC(=O)/C(=N\OC(C)(C)C(=O)O)c2csc(N)n2)C(=O)N1S(=O)(=O)O [ATM, Aztreonam]",–,–,–,–,–,–,–,–,–,–,–,–,–,–,–,> 64,> 64,0.25,> 64,4,MIC (P. aeruginosa PAO1; [19]): 2 µg/mL; MIC (S. enteritis S1; read-out: MIC): 2 µg/mL
"CN[C@H](CC(C)C)C(=O)N[C@H]1C(=O)N[C@@H](CC(N)=O)C(=O)N[C@H]2C(=O)N[C@H]3C(=O)N[C@H](C(=O)N[C@H](C(=O)O)c4cc(O)cc(O)c4-c4cc3ccc4O)[C@H](O)c3ccc(c(Cl)c3)Oc3cc2cc(c3O[C@@H]2O[C@H](CO)[C@@H](O)[C@H](O)[C@H]2O[C@H]2C[C@](C)(N)[C@H](O)[C@H](C)O2)Oc2ccc(cc2Cl)[C@H]1O [VAN, vancomycin]",–,–,–,–,–,–,–,–,–,–,–,–,–,–,–,–,–,–,–,–,MIC (S. aureus ATCC 29213): 1 µg/mL; MIC (E. faecalis ES01; ES01): 16 µg/mL; MIC (E. faecalis J2; J2): 2 µg/mL; MIC (E. faecalis JH2-2): 2 µg/mL; MIC (E. faecalis SF23-1): 2 µg/mL; MIC (E. faecium HFY01; HFY01): 0.5 µg/mL; MIC (E. faecium MC38; MC38): 2 µg/mL; MIC (E. faecium QF31; QF31): 2 µg/mL; MIC (S. agalactiae DL03; DL03): 0.125 µg/mL; MIC (S. aureus M147-2): 0.5 µg/mL; MIC (S. aureus M92-1): 1 µg/mL; MIC (S. aureus YZSA-15): 16 µg/mL; MIC (S. aureus YZSA-21): 1 µg/mL; MIC (S. aureus YZSA-24): < 0.06 µg/mL; MIC (S. pyogenes DL02; DL02): < 0.06 µg/mL; MIC (S. suis SH0918; SH0918): < 0.06 µg/mL; MIC (S. suis P1/7): < 0.06 µg/mL
